Converted amounts (≈) assume the structure as drawn. Counter-ions that a name gives are not always drawn.
Test: physchem
Format: physicochemical
Text: Several salts of eletriptan have been identified that have properties which make them particularly suitable for development as drug substances. […] It is therefore desirable to provide a controlled release formulation capable of achieving a sigmoidal pattern of drug release and suitable for oral administration that is equally useful for the delivery of any form of eletriptan, regardless of its solubility.

aqueous solubility [µg/mL] | solubility (20 °C, water, aqueous solubility) [µg/mL] | Compound
2500 (≈ 6.54 mM) | – | CN1CCC[C@@H]1Cc1c[nH]c2ccc(CCS(=O)(=O)c3ccccc3)cc12 [eletriptan free base, 3-{[1-methylpyrrolidin-2(R)-yl]methyl}-5-(2-phenylsulfonylethyl)-1H-indole]
– | 4000 | CN1CCC[C@@H]1Cc1c[nH]c2ccc(CCS(=O)(=O)c3ccccc3)cc12 [hydrobromide salt, eletriptan hydrobromide]
> 200000 | – | eletriptan hemisulphate [hemisulphate salt]

From patent US20020034545A1, “Particulate composition of eletriptan” (priority 2000, published 2002)
